The values below are quoted from earlier work in patent US20210220357A1, “1,3-THIAZOL-2-YL SUBSTITUTED BENZAMIDES FOR THE TREATMENT OF DISEASES ASSOCIATED WITH NERVE FIBER SENSITIZATION” (Bayer Aktiengesellschaft, priority 2018, published 2021).

The data set has as its system treated subjects. Particulars: Clinical Phase II trials, taste sensation via the tongue.

On to `COc1cc(C(C)C)c(Oc2cnc(N)nc2N)cc1S(N)(=O)=O` [AF-219, 5-(2,4-diamino-pyrimidin-5-yloxy)-4-isopropyl-2-methoxy-benzenesulfonamide], for which the taste disturbances result was “taste disturbances”.
